Columns and labels:
SKCO1 cells [1] = assay: SKCO1 cells viability (CellTiter-Fluor) as readout of proliferation; format: cell-based, human; conditions: 5 mM ALA at day 0, no medium refresh
Experimental: (A) Heme content in SHSY5Y cells non-treated (NT) or treated with 5 mM ALA for 15 hours. Values are expressed as pmol heme/mg protein. Data represent mean±SEM, n=3; *=P<0.05. (B, C) qRT-PCR analysis of the expression of ALAS1 (B) and FLVCR1a (C) in SHSY5Y cells non-treated (NT) or treated with 5 mM ALA for 15 hours. Transcript abundance, normalized to beta-actin mRNA expression, is expressed as a fold increase over a calibrator sample. Data represent mean±SEM, n=4. For statistical analyses, an unpaired Student's t-test was used; *p<0.05. (D) qRT-PCR analysis of the expression of ALAS1 in SKCO1 cells untreated (NT) or treated with 5 mM ALA for 24 hours. Transcript abundance, normalized to beta-actin mRNA expression, is expressed as a fold increase over a calibrator sample. Data represent mean±SEM, n=5. […] Band intensities were measured by densitometry and normalized to beta-actin expression. […] (F) Proliferation of SHSY5Y cells assessed by crystal violet staining at different time points (starting from the day after plating, named “day 0”). Treatment with 5 mM ALA occurred at “day 0” and cells were monitored until the end of the experiment without medium refresh. […] (G) SKCO1 cells viability measured by the CellTiter-Fluor Cell Viability Assay (Promega, Madison, WI USA, catalog n°G6080) at different time points, starting from the day after plating (named “day 0”), as a readout of cell proliferation. […]

SKCO1 cells [2] = assay: Mitochondrial ATP levels in SKCO1 cells; format: cell-based, human; conditions: FLVCR1a-silenced vs scramble shRNA SKCO1 cells
Source text: (A, C, E) Activities of the mitochondrial electron transport chain complexes I-IV. FLVCR1a-silenced Caco2 (A), SKCO1 (C) or C80 cells (E) are compared to cells expressing a scramble shRNA. Results were expressed as nmol NAD^+/min/mg mitochondrial protein for complex I, nmol reduced cytochrome c/min/mg mitochondrial protein for complexes II-III, nmol oxidized cytochrome c/min/mg mitochondrial protein for complex IV. Data represent mean±SEM, n=3. For statistical analyses, an unpaired Student's t-test was used; *=p<0.05, **=p<0.01. (B, D, F) Mitochondrial ATP levels measured by a bioluminescent assay kit. FLVCR1a-silenced Caco2 (B), SKCO1 (D) or C80 cells (F) are compared to cells expressing a scramble shRNA. Results are expressed as nmol/mg mitochondrial proteins. […] Results were expressed as nmol NAD^+/min/mg mitochondrial protein for complex I, nmol reduced cytochrome c/min/mg mitochondrial protein for complexes II-III, nmol oxidized cytochrome c/min/mg mitochondrial protein for complex IV. […] (H) Mitochondrial ATP levels measured by a bioluminescent assay kit in Caco2 cells overexpressing FLVCR1a (indicated as FLVCR1a+) compared to cells stably transduced with an empty vector. Results are expressed as nmol/mg mitochondrial proteins. […]
ATP levels in mitochondria extracts were assessed by the ATP Bioluminescent Assay Kit (Sigma-Aldrich, St. Louis, MO USA, catalog n° FLAA). […]

Cl.NCC(=O)CCC(=O)O [5-ALA, 5-Aminolevulinic acid hydrochloride]
cell proliferation (cell viability) (SKCO1 cells [1]): Reduced proliferation

FLVCR1a shRNA: shRNA specifically down-regulating FLVCR1a without targeting FLVCR1b; pLKO.1 lentiviral clone TRCN0000059599, antisense SEQ ID No.: 2 (antisense TTGCTAATGATGCTGTACTGG; sense CCAGTACAGCATCATTAGCAA)
mitochondrial ATP levels (SKCO1 cells [2]): increased

— patent US20240285670A1, “THERAPEUTIC TREATMENT OF TUMORS BY BLOCKING THE HEME SYNTHESIS-EXPORT AXIS” (Università degli Studi di Torino, priority 2021, published 2024)
